# Source: publication PMC11904948, “Peptide‐Drug Conjugate for Therapeutic Reprogramming of Tumor‐Associated Macrophages in Breast Cancer” (Advanced Science, 2025)
# What was measured:
# [1] = system: mouse bone marrow‐derived macrophages (BMDM); assay: Phagocytosis of fluorescent E. coli particles by BMDM; type: cell-based; settings: 10 µM 4 h, washed, 48 h follow-up, versus MACTIDE treated and untreated BMDM
# Protocol: We then analyzed if MACTIDE‐V affected the phagocytic activity of BMDM in vitro.
# For the E. coli phagocytosis assay, cells were cultured in a 96‐well plate and treated with conjugates as previously described (for 4 h at a 10 µM concentration at 37 °C, then peptide conjugates were removed, washed with media and fresh media was added). The phagocytosis assay was performed at 48 h after treatment removal by removing the media, incubating fluorescent E. coli BioParticles for 2 h, followed by a 1 min incubation with trypan blue (Vybrant Phagocytosis Assay Kit, Invitrogen, Cat# V6694). Plates were read at 480 nm excitation and 520 nm emission using a BioTek Synergy H1 plate reader.
# [2] = system: primary human macrophages; assay: Cytokine secretion by primary human macrophages (bead-based multiplex panel); type: cell-based; settings: 10 µM 4 h, washed, 48 h, supernatant, n = 3
# Protocol: To investigate potential off‐target risk in vivo caused by MACTIDE‐V we analyzed the serum levels of the hepatic enzyme alanine aminotransferase (ALAT) following a 3 mg Kg^−1 dose of MACTIDE‐V in healthy mice. If MACTIDE‐V causes off‐target inflammation, it would likely occur in the liver (the organ that expresses the MACTIDE receptor) and would reflect on ALAT levels (liver inflammation produces a > 2‐fold increase in ALAT^[ [35] ^]).
# Figure S9. Quantification of cytokines from the supernatant of primary human macrophages treated with MACTIDE-V. Primary human macrophages (obtained from monocytes derived from human blood buffy coat) were incubated with 10µM MACTIDE-V for 4 h, followed by 2 washes with media, the cells were then placed in new media and cultured for an additional 48 h. Then, the supernatant was collected and analyzed for cytokine expression using a bead-based multiplexed cytokine panel assay (Biolegend, cat# 740502) following the manufacturer’s instructions. Anova Fisher LSD (n=3).
# Balb/c BMDM = assay: Flow cytometry of marker expression on Balb/c BMDM; type: cell-based, mouse; settings: 10 µM 4 h, 48 h after treatment, n = 4
# Protocol: Figure 6 MACTIDE‐V promotes a YAP‐ mediated anti‐ tumoral switch in bone marrow‐derived macrophages. Day 5 BMDM were incubated for 4 h with 10 µM conjugates, washed, and followed‐up in media. A) YAP Immunofluorescence (shown in red) was analyzed 3 h after treatment and B) phagocytosis of fluorescent E. coli particles at 48 h follow‐up. C) Flow cytometry on BMDM 48 h after treatment. Left panel, GeoMean of MHC II, CD206, CD80, and PD‐L1 in Balb/c BMDM. Median ± interquartile range. Repeated measures one‐way ANOVA with multiple comparisons, for n = 4 independent experiments. ^* p ≤ 0.05, ^** p ≤ 0.01. D) Heatmap of the mRNA expression of genes involved in the functional activation of BMDM, YAP signaling, and adhesion, measured by real‐time PCR 48 h after treatment in BALB/c BMDM. n = 3 independent experiments. […]
# At the mRNA level, MACTIDE‐V induced a clear increase in Il‐12, Chil3 and Nos2 genes, (Figure 6D, left panel). […] To further investigate whether the effect of MACTIDE‐V was mediated by YAP targeting, we analyzed a set of 7 YAP‐regulated genes (Figure 6D, right panel). […]
substance,measurement,setting,value
Vert‐Ahx‐G(CTKSIPPIC)SPGAK‐OH (disulfide) [MACTIDE‐V],phagocytosis of fluorescently labeled E. coli,[1],significantly higher phagocytosis
same,secretion of IFN‐γ,[2],did not significantly increase
same,secretion of IL‐1RA,[2],significantly decreased
same,secretion of IL‐12,[2],significantly increased
same,secretion of IL‐23,[2],significantly increased
same,secretion of TNF‐α,[2],did not significantly increase
same,expression of CD80 (GeoMean),Balb/c BMDM,no significant changes
same,expression of CD206 (GeoMean),Balb/c BMDM,no significant changes
same,expression of MHC II (GeoMean),Balb/c BMDM; versus CtrlPep‐V and untreated,upregulated
same,expression of PD‐L1 (GeoMean),Balb/c BMDM; versus CtrlPep‐V and untreated,upregulated
